Values of other authors as cited in patent US20240197753A1, “PHARMACEUTICAL COMPOSITION FOR IMPROVING CARDIAC FUNCTION” (OSAKA UNIVERSITY, priority 2021, published 2024).

no-observed-effect level (blood ONO-1301 concentration) (oral dosing phase I study): 15.61 ng/mL
Compound: O=C(O)COc1cccc2c1CCC=C2CCO/N=C(\c1ccccc1)c1cccnc1 [ONO-1301, ({5-[2-({[(1E)-phenyl(pyridin-3-yl)methylene]amino}oxy)ethyl]-7,8-dihydronaphthalen-1-yl}oxy)acetic acid]
no-observed-adverse-effect level (blood ONO-1301 concentration) (oral dosing phase I study): 23.69 ng/mL | Safety margin (efficacy: platelet aggregation inhibition; side effects: epigastric pain, fever, cold sweat, diarrhea, etc.) (oral, Phase I clinical trials): narrow
